Active and inactive are the calls of the source. The rule behind the calls is not given here.
Assays:
[1] = biological target: T1, 17-beta-hydroxysteroid dehydrogenase type 3 (Homo sapiens, UniProt P37058); assay: Inhibition of human 17beta-HSD3 expressed in HeLa cells assessed as conversion of 4-androstene-3,17-dione to testosterone; type: cell-based
T1 sequence (P37058 whole entry): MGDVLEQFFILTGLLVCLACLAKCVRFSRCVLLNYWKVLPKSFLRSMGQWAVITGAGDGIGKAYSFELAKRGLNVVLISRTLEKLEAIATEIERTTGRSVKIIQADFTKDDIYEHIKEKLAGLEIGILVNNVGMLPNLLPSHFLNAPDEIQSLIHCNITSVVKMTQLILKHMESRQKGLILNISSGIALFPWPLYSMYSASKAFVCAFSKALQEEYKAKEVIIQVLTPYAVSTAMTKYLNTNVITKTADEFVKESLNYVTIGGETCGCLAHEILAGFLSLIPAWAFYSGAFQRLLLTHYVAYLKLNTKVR

[2] = biological target: T1, 17-beta-hydroxysteroid dehydrogenase type 3; assay: Inhibition of 17beta-HSD3 in human testes homogenate; type: tissue-based, Testis
[3] = biological target: T2, 17-beta-hydroxysteroid dehydrogenase type 3 (Mus musculus, UniProt P70385); assay: Inhibition of 17beta-HSD3 in mouse testes homogenate; type: tissue-based, Testis
T2 sequence (P70385 whole entry): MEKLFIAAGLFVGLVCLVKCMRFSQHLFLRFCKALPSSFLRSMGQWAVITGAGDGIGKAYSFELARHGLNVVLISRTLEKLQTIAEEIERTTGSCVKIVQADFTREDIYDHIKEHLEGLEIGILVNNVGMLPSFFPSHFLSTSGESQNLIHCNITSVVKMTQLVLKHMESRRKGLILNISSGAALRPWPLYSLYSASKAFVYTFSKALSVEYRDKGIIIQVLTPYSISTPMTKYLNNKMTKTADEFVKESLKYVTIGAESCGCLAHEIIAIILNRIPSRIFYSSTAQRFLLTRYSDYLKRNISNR

[4] = Inhibition of 17beta-HSD3 in marmoset testes homogenate; type: tissue-based, Callitrichinae sp., Testis
[5] = biological target: T3, 17-beta-hydroxysteroid dehydrogenase type 1 (Homo sapiens) (UniProt P14061); assay: Inhibition of 17beta-HSD1 expressed in HeLa cells assessed as conversion of estrone into estradiol; type: cell-based
T3 sequence (whole entry): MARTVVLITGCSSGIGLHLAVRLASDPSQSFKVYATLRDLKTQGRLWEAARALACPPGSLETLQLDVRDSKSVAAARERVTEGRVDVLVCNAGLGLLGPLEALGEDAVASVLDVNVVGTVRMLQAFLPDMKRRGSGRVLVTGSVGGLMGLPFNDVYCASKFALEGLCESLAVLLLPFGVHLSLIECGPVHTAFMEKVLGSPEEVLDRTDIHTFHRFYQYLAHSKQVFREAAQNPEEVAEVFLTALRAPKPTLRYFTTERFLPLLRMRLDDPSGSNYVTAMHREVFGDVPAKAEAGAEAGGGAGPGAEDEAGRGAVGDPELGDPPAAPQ

[6] = biological target: T4, 17-beta-hydroxysteroid dehydrogenase type 2 (Homo sapiens) (UniProt P37059); assay: Inhibition of 17beta-HSD2 expressed in HeLa cells assessed as conversion of estrone into estradiol; type: cell-based
T4 sequence (whole entry): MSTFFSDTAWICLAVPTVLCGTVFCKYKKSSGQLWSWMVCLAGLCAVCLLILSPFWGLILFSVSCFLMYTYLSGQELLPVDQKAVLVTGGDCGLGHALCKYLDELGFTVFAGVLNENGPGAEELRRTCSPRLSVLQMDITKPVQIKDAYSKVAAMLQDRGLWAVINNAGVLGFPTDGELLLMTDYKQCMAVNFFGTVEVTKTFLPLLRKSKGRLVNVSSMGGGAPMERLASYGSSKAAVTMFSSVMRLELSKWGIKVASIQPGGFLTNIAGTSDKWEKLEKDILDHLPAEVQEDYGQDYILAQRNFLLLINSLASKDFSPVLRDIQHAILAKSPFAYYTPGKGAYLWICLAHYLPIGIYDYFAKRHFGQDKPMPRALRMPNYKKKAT

[7] = biological target: T5, Androgen receptor (Homo sapiens) (UniProt P10275); assay: Agonist activity at androgen receptor by transcriptional reporter gene assay; type: functional
T5 sequence (whole entry): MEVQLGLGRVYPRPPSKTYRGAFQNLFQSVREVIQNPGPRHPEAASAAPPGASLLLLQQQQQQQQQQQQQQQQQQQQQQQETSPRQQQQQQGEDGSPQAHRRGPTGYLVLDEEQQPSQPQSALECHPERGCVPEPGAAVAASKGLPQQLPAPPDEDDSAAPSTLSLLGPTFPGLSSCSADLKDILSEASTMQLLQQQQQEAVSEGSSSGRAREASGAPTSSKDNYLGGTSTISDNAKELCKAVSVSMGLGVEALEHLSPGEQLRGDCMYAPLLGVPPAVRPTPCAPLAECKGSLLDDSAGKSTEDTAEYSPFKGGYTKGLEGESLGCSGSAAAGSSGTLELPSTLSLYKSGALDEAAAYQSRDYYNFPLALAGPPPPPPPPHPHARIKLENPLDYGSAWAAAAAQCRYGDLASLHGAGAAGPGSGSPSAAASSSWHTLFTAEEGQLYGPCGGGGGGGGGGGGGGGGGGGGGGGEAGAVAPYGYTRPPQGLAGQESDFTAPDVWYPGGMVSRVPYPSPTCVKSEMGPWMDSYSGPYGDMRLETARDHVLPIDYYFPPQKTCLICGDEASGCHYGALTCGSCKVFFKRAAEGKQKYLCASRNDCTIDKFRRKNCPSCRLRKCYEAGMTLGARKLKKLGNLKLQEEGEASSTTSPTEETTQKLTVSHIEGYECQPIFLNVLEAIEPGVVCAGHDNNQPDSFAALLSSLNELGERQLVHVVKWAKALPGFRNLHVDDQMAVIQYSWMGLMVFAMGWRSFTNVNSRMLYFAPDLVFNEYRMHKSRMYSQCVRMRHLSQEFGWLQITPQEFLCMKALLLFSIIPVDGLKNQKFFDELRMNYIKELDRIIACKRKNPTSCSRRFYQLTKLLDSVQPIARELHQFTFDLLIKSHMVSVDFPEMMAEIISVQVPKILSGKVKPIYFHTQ

[8] = biological target: T5, Androgen receptor (Homo sapiens); assay: Antagonist activity at androgen receptor by transcriptional reporter gene assay; type: functional
[9] = biological target: T6, Estrogen receptor (Homo sapiens) (UniProt P03372); assay: Agonist activity at ERalpha by transcriptional reporter gene assay; type: functional
T6 sequence (whole entry): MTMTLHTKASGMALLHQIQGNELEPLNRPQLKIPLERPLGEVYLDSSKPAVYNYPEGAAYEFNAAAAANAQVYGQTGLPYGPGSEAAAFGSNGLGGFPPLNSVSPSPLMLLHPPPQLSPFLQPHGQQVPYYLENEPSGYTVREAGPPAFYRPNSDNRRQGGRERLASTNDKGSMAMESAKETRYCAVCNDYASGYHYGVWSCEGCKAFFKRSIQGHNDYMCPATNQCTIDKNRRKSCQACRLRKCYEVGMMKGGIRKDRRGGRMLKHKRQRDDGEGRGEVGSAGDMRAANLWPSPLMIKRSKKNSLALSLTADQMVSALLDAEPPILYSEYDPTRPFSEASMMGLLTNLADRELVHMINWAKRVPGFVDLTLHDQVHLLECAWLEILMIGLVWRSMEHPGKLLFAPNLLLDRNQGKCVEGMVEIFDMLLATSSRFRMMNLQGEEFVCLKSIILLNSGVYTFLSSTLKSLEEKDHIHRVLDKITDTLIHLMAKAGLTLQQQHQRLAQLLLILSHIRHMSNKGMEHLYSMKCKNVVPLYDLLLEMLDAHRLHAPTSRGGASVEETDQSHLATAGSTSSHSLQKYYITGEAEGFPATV

[10] = biological target: T6, Estrogen receptor (Homo sapiens); assay: Antagonist activity at ERalpha by transcriptional reporter gene assay; type: functional
[11] = biological target: T7, Glucocorticoid receptor (Homo sapiens) (UniProt P04150); assay: Agonist activity at glucocorticoid receptor by transcriptional reporter gene assay; type: functional
T7 sequence (whole entry): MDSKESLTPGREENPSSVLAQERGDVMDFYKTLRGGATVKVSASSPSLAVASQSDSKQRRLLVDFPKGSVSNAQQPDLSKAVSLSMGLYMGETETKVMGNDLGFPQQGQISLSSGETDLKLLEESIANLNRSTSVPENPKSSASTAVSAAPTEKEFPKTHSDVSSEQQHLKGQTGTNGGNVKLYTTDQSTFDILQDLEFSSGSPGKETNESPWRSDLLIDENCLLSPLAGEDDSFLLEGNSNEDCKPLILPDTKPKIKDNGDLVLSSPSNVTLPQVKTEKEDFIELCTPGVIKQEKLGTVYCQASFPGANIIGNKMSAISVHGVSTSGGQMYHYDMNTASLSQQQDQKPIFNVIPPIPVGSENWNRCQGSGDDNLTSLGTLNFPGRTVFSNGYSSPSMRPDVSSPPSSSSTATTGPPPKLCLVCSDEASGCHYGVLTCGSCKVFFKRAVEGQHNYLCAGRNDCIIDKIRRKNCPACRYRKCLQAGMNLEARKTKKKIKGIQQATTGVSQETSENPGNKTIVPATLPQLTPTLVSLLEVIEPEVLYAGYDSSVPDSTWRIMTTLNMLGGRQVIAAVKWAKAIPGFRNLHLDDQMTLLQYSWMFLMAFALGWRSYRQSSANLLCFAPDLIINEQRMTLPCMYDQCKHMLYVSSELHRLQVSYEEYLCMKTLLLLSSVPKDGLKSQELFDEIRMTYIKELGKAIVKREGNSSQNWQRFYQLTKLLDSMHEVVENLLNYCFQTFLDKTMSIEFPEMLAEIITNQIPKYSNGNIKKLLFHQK

[12] = biological target: T7, Glucocorticoid receptor (Homo sapiens); assay: Antagonist activity at glucocorticoid receptor by transcriptional reporter gene assay; type: functional
[13] = biological target: T8, 17-beta-hydroxysteroid dehydrogenase type 3 (Homo sapiens) (UniProt P37058); details: HeLa, 10 uM
T8 sequence (whole entry): T1 sequence (P37058 whole entry)
Description: Inhibition of human 17beta-HSD3 activity expressed in HeLa cells assessed as conversion of 4-androstene-3,17-dione to testosterone at 10 uM

For `COc1ccc(N2C(=O)N/C(=C\c3ccc(O)c(Br)c3)C2=O)cc1`, the IC50 ([1]; hela) was “Not Active”.

`COc1ccc(N2C(=O)O/C(=C\c3ccc(O)c(Br)c3)C2=O)cc1` showed an IC50 ([1]; read-out: IC50) of 23 nM.

Work on `COc1ccc(N2C(=O)OC(Cc3ccc(O)c(Br)c3)C2=O)cc1` (configuration not stated) yielded an IC50 ([1]; read-out: IC50) of 300 nM.

`COc1ccc(N2C/C(=C/c3ccc(O)c(Br)c3)OC2=O)cc1` gave an IC50 ([1]; read-out: IC50) of 670 nM.

With `COc1ccc(-n2cnn(Cc3ccc(O)c(Br)c3)c2=O)cc1` the IC50 ([1]; read-out: IC50) was 5700 nM.

In the case of `COc1ccc(N2C(=O)S/C(=C\c3ccc(O)c(Br)c3)C2=O)cc1`, the IC50 ([1]; read-out: IC50) is reported as 90 nM.

For `COc1ccc(N2C(=O)/C(=C/c3ccc(O)c(Br)c3)N(C)C2=O)cc1`, the IC50 ([1]; hela) was “Not Active”.

Compound `COc1ccc(N2C(=O)/C(=C/c3ccc(O)c(Br)c3)SC2=S)cc1` has an IC50 ([1]; read-out: IC50) of 14 nM, an IC50 [2] of 6 nM and an IC50 [3] of 40 nM. For the same compound, the IC50 [4] was 0.6 nM, the inhibition [5] was “inactive” and the inhibition [6] was “inactive”. For the same compound, the Activity [7] was “inactive”, the Activity [8] was “inactive” and the Activity [9] was “inactive”. The Activity [10] was “inactive”, the Activity [11] was “inactive” and the Activity [12] was “inactive”. It also gave an inhibition [13] of 23%.

In the case of `COc1ccc(-n2cc(Cc3ccc(O)c(Br)c3)sc2=O)cc1`, the IC50 ([1]; read-out: IC50) is reported as 570 nM.

For `COc1ccc(N2C(=O)/C(=C/c3ccc(O)c(Br)c3)OC2=S)cc1`, the IC50 ([1]; read-out: IC50) was 13 nM.
